Experimental data: patent publication US9365614B2, “IAP BIR domain binding compounds” (priority 2006, dated 2016)

Test system: SKOV-3 cells
Experiment: Survival MTT assay, SKOV-3
Assay type: cell-based
Settings: Homo sapiens, SK-OV-3, 72 h, read-out: SKOV-3 EC50
Procedure: One day prior the treatment with compound, 2000 to 4000 cells per well were plated in a tissue culture treated 96 well format dish with 100 ul of media and incubated at 37° C., 5% CO2. On the day of compound treatment, compounds were diluted with cell culture media to a working stock concentration of 2×. 100 uL of diluted compound were then added to each well. The treated plate was incubated for 72 h at 37° C., 5% CO2. Upon incubation, the cell viability was assessed as followed 20 uL of MTT reagent at 5 mg/ml were added per well to cell plate. The plate was incubated for 2 h at 37° C. in presence of 5% CO2. The supernatant was then removed from the plate and 100 uL of isopropanol were added. The absorbance was measured in a TECAN spectrophotometer at 570 nm. The percentage of viability was expressed in percentage of the signal obtained with non treated cells.

Row | Compound | EC50
1 | CN[C@@H](C)C(=O)N[C@H](C(=O)N1C[C@@H](NS(=O)(=O)c2ccc3ccc(S(=O)(=O)N[C@H]4C[C@@H](C(=O)N[C@@H]5CCCc6ccccc65)N(C(=O)[C@@H](NC(=O)[C@H](C)NC)C(C)(C)C)C4)cc3c2)C[C@H]1C(=O)N[C@@H]1CCCc2ccccc21)C(C)(C)C [Compound 58] | < 0.25 µM
2 | CN[C@@H](C)C(=O)N[C@H](C(=O)N1C[C@@H](NC(=O)Cc2ccc(CC(=O)N[C@H]3C[C@@H](C(=O)N[C@@H]4CCCc5ccccc54)N(C(=O)[C@@H](NC(=O)[C@H](C)NC)C(C)(C)C)C3)cc2)C[C@H]1C(=O)N[C@@H]1CCCc2ccccc21)C(C)(C)C [Compound 15] | < 0.05 µM
3 | CN[C@@H](C)C(=O)N[C@H](C(=O)N1C[C@@H](NC(=O)c2ccc(C(=O)N[C@H]3C[C@@H](C(=O)NC[C@H](C)c4ccccc4)N(C(=O)[C@@H](NC(=O)[C@H](C)NC)C(C)(C)C)C3)cc2)C[C@H]1C(=O)NC[C@@H](C)c1ccccc1)C(C)(C)C [Compound 21] | < 0.05 µM
4 | CN[C@@H](C)C(=O)N[C@H](C(=O)N1C[C@@H](NC(=O)c2ccc(C(=O)N[C@H]3C[C@@H](C(=O)NCc4cccc(-c5ccccc5)c4)N(C(=O)[C@@H](NC(=O)[C@H](C)NC)C(C)(C)C)C3)cc2)C[C@H]1C(=O)NCc1cccc(-c2ccccc2)c1)C(C)(C)C [Compound 48] | < 0.25 µM
5 | CN[C@@H](C)C(=O)N[C@H](C(=O)N1C[C@@H](CC(=O)c2ccc3ccc(C(=O)N[C@H]4C[C@@H](C(=O)N[C@@H]5CCCc6ccccc65)N(C(=O)[C@@H](NC(=O)[C@H](C)NC)C(C)(C)C)C4)cc3c2)C[C@H]1C(=O)N[C@@H]1CCCc2ccccc21)C(C)(C)C [Compound 57] | < 0.05 µM
6 | CN[C@@H](C)C(=O)N[C@H](C(=O)N1C[C@@H](NC(=O)c2cccc(C(=O)N[C@H]3C[C@@H](C(=O)N[C@@H]4CCCc5ccccc54)N(C(=O)[C@@H](NC(=O)[C@H](C)NC)C(C)(C)C)C3)c2)C[C@H]1C(=O)N[C@@H]1CCCc2ccccc21)C(C)(C)C [Compound 40] | < 0.05 µM
7 | CN[C@@H](C)C(=O)N[C@H](C(=O)N1C[C@@H](NC(=O)c2ccc(C(=O)N[C@H]3C[C@@H](C(=O)NC(c4ccc(OC)cc4)c4ccc(OC)cc4)N(C(=O)[C@@H](NC(=O)[C@H](C)NC)C(C)(C)C)C3)cc2)C[C@H]1C(=O)NC(c1ccc(OC)cc1)c1ccc(OC)cc1)C(C)(C)C [Compound 51] | < 0.25 µM
8 | CN[C@@H](C)C(=O)N[C@H](C(=O)N1C[C@@H](NC(=O)c2ccc(C(=O)N[C@H]3C[C@@H](C(=O)NC(C)C)N(C(=O)[C@@H](NC(=O)[C@H](C)NC)C(C)(C)C)C3)cc2)C[C@H]1C(=O)NC(C)C)C(C)(C)C [Compound 22] | < 0.25 µM
9 | CN[C@@H](C)C(=O)N[C@H](C(=O)N1C[C@@H](NC(=O)c2ccc(C(=O)N[C@H]3C[C@@H](CN(CCc4ccccc4)S(C)(=O)=O)N(C(=O)[C@@H](NC(=O)[C@H](C)NC)C(C)(C)C)C3)cc2)C[C@H]1CN(CCc1ccccc1)S(C)(=O)=O)C(C)(C)C [Compound 26] | < 0.25 µM
10 | CN[C@@H](C)C(=O)N[C@H](C(=O)N1C[C@@H](NC(=O)c2ccc(C(=O)N[C@H]3C[C@@H](C(=O)OC)N(C(=O)[C@@H](NC(=O)[C@H](C)NC)C(C)(C)C)C3)cc2)C[C@H]1C(=O)OC)C(C)(C)C [Compound 18] | > 1 µM
11 | CN[C@@H](C)C(=O)N[C@H](C(=O)N1C[C@@H](OCc2ccc(CO[C@H]3C[C@@H](C(=O)N[C@@H]4CCCc5ccccc54)N(C(=O)[C@@H](NC(=O)[C@H](C)NC)C(C)(C)C)C3)cc2)C[C@H]1C(=O)N[C@@H]1CCCc2ccccc21)C(C)(C)C [Compound 17] | < 0.05 µM
12 | CN[C@@H](C)C(=O)N[C@H](C(=O)N1C[C@@H](NC(=O)CCCC(=O)N[C@H]2C[C@@H](C(=O)N[C@@H]3CCCc4ccccc43)N(C(=O)[C@@H](NC(=O)[C@H](C)NC)C(C)(C)C)C2)C[C@H]1C(=O)NC1CCCc2ccccc21)C(C)(C)C (some centres unmarked) [Compound 14] | < 0.05 µM
13 | CN[C@@H](C)C(=O)N[C@H](C(=O)N1C[C@@H](NC(=O)CNC(=O)c2ccc(-c3ccc(C(=O)NCC(=O)N[C@H]4C[C@@H](C(=O)N[C@@H]5CCCc6ccccc65)N(C(=O)[C@@H](NC(=O)[C@H](C)NC)C(C)(C)C)C4)cc3)cc2)C[C@H]1C(=O)N[C@@H]1CCCc2ccccc21)C(C)(C)C [Compound 38] | < 0.25 µM
14 | CN[C@@H](C)C(=O)N[C@H](C(=O)N1C[C@@H](NC(=O)c2ccc(C(=O)N[C@H]3C[C@@H](C(=O)NC4c5ccccc5-c5ccccc54)N(C(=O)[C@@H](NC(=O)[C@H](C)NC)C(C)(C)C)C3)cc2)C[C@H]1C(=O)NC1c2ccccc2-c2ccccc21)C(C)(C)C [Compound 47] | < 0.05 µM
15 | CN[C@@H](C)C(=O)N[C@H](C(=O)N1C[C@@H](NC(=O)c2ccc(C(=O)N[C@H]3C[C@@H](C(=O)NCc4cccc5ccccc45)N(C(=O)[C@@H](NC(=O)[C@H](C)NC)C(C)(C)C)C3)cc2)C[C@H]1C(=O)NCc1cccc2ccccc12)C(C)(C)C [Compound 32] | < 0.25 µM
16 | CN[C@@H](C)C(=O)N[C@H](C(=O)N1C[C@@H](NS(=O)(=O)c2cccc(S(=O)(=O)N[C@H]3C[C@@H](C(=O)N[C@@H]4CCCc5ccccc54)N(C(=O)[C@@H](NC(=O)[C@H](C)NC)C(C)(C)C)C3)c2)C[C@H]1C(=O)N[C@@H]1CCCc2ccccc21)C(C)(C)C [Compound 33] | < 0.05 µM
17 | CN[C@@H](C)C(=O)N[C@H](C(=O)N1C[C@@H](NC(=O)c2ccc(C(=O)N[C@H]3C[C@@H](C(=O)NCC(c4ccccc4)c4ccccc4)N(C(=O)[C@@H](NC(=O)[C@H](C)NC)C(C)(C)C)C3)cc2)C[C@H]1C(=O)NCC(c1ccccc1)c1ccccc1)C(C)(C)C [Compound 31] | < 0.25 µM
18 | CN[C@@H](C)C(=O)N[C@H](C(=O)N1C[C@@H](NC(=O)C2CCC(C(=O)N[C@H]3C[C@@H](C(=O)N[C@@H]4CCCc5ccccc54)N(C(=O)[C@@H](NC(=O)[C@H](C)NC)C(C)(C)C)C3)CC2)C[C@H]1C(=O)N[C@@H]1CCCc2ccccc21)C(C)(C)C (some centres unmarked) [Compound 52] | < 0.05 µM
19 | CN[C@@H](C)C(=O)N[C@H](C(=O)N1C[C@@H](NC(=O)c2ccc(C(=O)N[C@H]3C[C@@H](C(=O)N[C@H](CO)c4ccccc4)N(C(=O)[C@@H](NC(=O)[C@H](C)NC)C(C)(C)C)C3)cc2)C[C@H]1C(=O)N[C@H](CO)c1ccccc1)C(C)(C)C [Compound 59] | < 0.25 µM
20 | CN[C@@H](C)C(=O)N[C@H](C(=O)N1C[C@@H](NC(=O)c2ccc(C(=O)N[C@H]3C[C@@H](C(=O)N[C@H](COCc4ccccc4)c4ccccc4)N(C(=O)[C@@H](NC(=O)[C@H](C)NC)C(C)(C)C)C3)cc2)C[C@H]1C(=O)N[C@H](COCc1ccccc1)c1ccccc1)C(C)(C)C [Compound 64] | < 0.05 µM
21 | CN[C@@H](C)C(=O)N[C@H](C(=O)N1C[C@@H](NC(=O)Nc2ccc(NC(=O)N[C@H]3C[C@@H](C(=O)N[C@@H]4CCCc5ccccc54)N(C(=O)[C@@H](NC(=O)[C@H](C)NC)C(C)(C)C)C3)cc2)C[C@H]1C(=O)N[C@@H]1CCCc2ccccc21)C(C)(C)C [Compound 44] | < 0.05 µM
22 | CN[C@@H](C)C(=O)N[C@H](C(=O)N1C[C@@H](NC(=O)c2ccc(C(=O)N[C@H]3C[C@@H](C(=O)NCc4ccccc4-c4ccccc4)N(C(=O)[C@@H](NC(=O)[C@H](C)NC)C(C)(C)C)C3)cc2)C[C@H]1C(=O)NCc1ccccc1-c1ccccc1)C(C)(C)C [Compound 60] | < 0.05 µM
23 | CN[C@@H](C)C(=O)N[C@H](C(=O)N1C[C@@H](NC(=O)CNC(=O)C(=O)NCC(=O)N[C@H]2C[C@@H](C(=O)N[C@@H]3CCCc4ccccc43)N(C(=O)[C@@H](NC(=O)[C@H](C)NC)C(C)(C)C)C2)C[C@H]1C(=O)N[C@@H]1CCCc2ccccc21)C(C)(C)C [Compound 36] | > 1 µM
24 | CC[C@H](N)C(=O)N[C@H](C(=O)N1C[C@@H](NC(=O)c2ccc(C(=O)N[C@H]3C[C@@H](C(=O)N[C@@H]4CCCc5ccccc54)N(C(=O)[C@@H](NC(=O)[C@@H](N)CC)C(C)(C)C)C3)cc2)C[C@H]1C(=O)N[C@@H]1CCCc2ccccc21)C(C)(C)C [Compound 53] | > 1 µM
25 | CN[C@@H](C)C(=O)N[C@H](C(=O)N1C[C@@H](NC(=O)c2ccc(C(=O)N[C@H]3C[C@@H](C(=O)N[C@H](C)c4ccccc4)N(C(=O)[C@@H](NC(=O)[C@H](C)NC)C(C)(C)C)C3)cc2)C[C@H]1C(=O)N[C@H](C)c1ccccc1)C(C)(C)C [Compound 49] | < 0.05 µM
26 | CN[C@@H](C)C(=O)N[C@H](C(=O)N1C[C@@H](NS(=O)(=O)c2ccc(-c3ccc(S(=O)(=O)N[C@H]4C[C@@H](C(=O)N[C@@H]5CCCc6ccccc65)N(C(=O)[C@@H](NC(=O)[C@H](C)NC)C(C)(C)C)C4)cc3)cc2)C[C@H]1C(=O)NC1CCCc2ccccc21)C(C)(C)C (some centres unmarked) [Compound 39] | < 0.05 µM
27 | CN[C@@H](C)C(=O)N[C@H](C(=O)N1C[C@@H](NC(=O)c2ccc(C(=O)N[C@H]3C[C@@H](C(=O)NCCc4ccc(F)cc4)N(C(=O)[C@@H](NC(=O)[C@H](C)NC)C(C)(C)C)C3)cc2)C[C@H]1C(=O)NCCc1ccc(F)cc1)C(C)(C)C [Compound 19] | < 0.05 µM
28 | CN[C@@H](C)C(=O)N[C@H](C(=O)N1C[C@@H](NC(=O)c2ccc(C(=O)N[C@H]3C[C@@H](C(=O)N[C@@H](C)c4ccccc4)N(C(=O)[C@@H](NC(=O)[C@H](C)NC)C(C)(C)C)C3)cc2)C[C@H]1C(=O)N[C@@H](C)c1ccccc1)C(C)(C)C [Compound 50] | < 0.25 µM
29 | CN[C@@H](C)C(=O)N[C@H](C(=O)N1C[C@@H](NC(=O)c2ccc(C(=O)N[C@H]3C[C@@H](C(=O)NC4Cc5ccccc5C4)N(C(=O)[C@@H](NC(=O)[C@H](C)NC)C(C)(C)C)C3)cc2)C[C@H]1C(=O)NC1Cc2ccccc2C1)C(C)(C)C [Compound 61] | < 0.05 µM
